Literature values, collected in patent US20060014828A1 (priority 2004, published 2006).
Counter-ions that a name gives are not always drawn.

For `NNc1nncc2ccccc12` [Hydralazine hydrochloride], the Solubility in alcohol is listed as “slightly soluble”, the Solubility in ether is listed as “very slightly soluble” and the Solubility in water is listed as “soluble”.
For `O=[N+]([O-])O[C@H]1CO[C@H]2[C@@H]1OC[C@H]2O[N+](=O)[O-]` [isosorbide dinitrate, 1,4,3,6-dianhydro-D-glucitol-2,5-dinitrate], the “Solubility in organic solvents such as ethanol, ether and chloroform” value is given as “freely soluble” and the Solubility in water is given as “sparingly soluble”.
